Activity calls are given as the source filed them. The calls are words filed in the database; no cut-off is given here.
Test system: Vaccinia virus
Type: functional, organism-based
Conditions: Orthopoxvirus vaccinia

For `CC12CC3CC1(C)CC3(NCc1ccccc1)C2`, the Activity was “inactive”.
For `CC12CC3CC1(C)CC3(CNCc1ccccc1)C2`, the Activity was “inactive”.
In the case of `N=C(N)NCC12CC3CC(CC1C3)C2`, the Activity was “inactive”.
For `CC12CC3CC1(C)CC3(CNC(=N)N)C2`, the Activity was “inactive”.
In the case of `COc1cccc(CNC23CC4CC(CC2C4)C3)c1`, the Activity was “inactive”.
`c1ccc(CNC23CC4CC(CC2C4)C3)cc1` was tested, and the Activity was “inactive”.
`CC12CC3CC1(C)CC3(CN)C2` was tested, and the Activity was “inactive”.
`COc1ccccc1CNC12CC3CC(CC1C3)C2` was tested, and the Activity was “inactive”.
In the case of `CN(C)C12CC3(C)CC1CC3(C)C2`, the Activity was “inactive”.
With `CN(Cc1ccccc1)C12CC3(C)CC1CC3(C)C2` the Activity was “inactive”.
For `Fc1ccc(CNC23CC4CC(CC2C4)C3)cc1`, the Activity was “inactive”.
`CNCC12CC3(C)CC1CC3(C)C2` was tested, and the Activity was “inactive”.
For `CC12CC3CC1(C)CC3(CN1CCCCC1)C2`, the Activity was “inactive”.
In the case of `CC12CC3CC1(C)CC3(N)C2`, the Activity was “inactive”.
For `CNCC12CC3CC(CC1C3)C2`, the Activity was “inactive”.
For `CN(Cc1ccccc1)C12CC3CC(CC1C3)C2`, the Activity was “inactive”.
`c1csc(CNC23CC4CC(CC2C4)C3)c1` was tested, and the Activity was “inactive”.
In the case of `CC12CC3CC1(C)CC3(N(Cc1ccccc1)Cc1ccccc1)C2`, the Activity was “inactive”.
For `CN(C)CC12CC3(C)CC1CC3(C)C2`, the Activity was “inactive”.
`c1ccc(CNCC23CC4CC(CC2C4)C3)cc1` was tested, and the Activity was “inactive”.
For `CNC12CC3(C)CC1CC3(C)C2`, the Activity was “inactive”.
`CN(C)CC12CC3CC(CC1C3)C2` was tested, and the Activity was “inactive”.
For `CN(Cc1ccccc1)CC12CC3(C)CC1CC3(C)C2`, the Activity was “inactive”.
For `NCC12CC3CC(CC1C3)C2`, the Activity was “inactive”.
In the case of `CC12CC3CC1(C)CC3(NCc1cccs1)C2`, the Activity was “inactive”.
In the case of `CC(N)C12CC3(C)CC1CC3(C)C2` (stereo unspecified), the Activity was “inactive”.
With `C1CCN(C23CC4CC(CC2C4)C3)CC1` the Activity was “inactive”.
For `CNC12CC3CC(CC1C3)C2`, the Activity was “inactive”.
With `COc1ccc(CNC23CC4CC(CC2C4)C3)cc1` the Activity was “inactive”.
With `CN(Cc1ccccc1)CC12CC3CC(CC1C3)C2` the Activity was “inactive”.
`CN(C)C12CC3CC(CC1C3)C2` was tested, and the Activity was “inactive”.

Reference: ChEMBL document CHEMBL1151696 (Bioorg Med Chem, 2008)
